Assay: Membrane fatty acid analysis in red blood cells (GC-MS) of UC patients given EPA-FFA
Type: in vivo, human
Method: A study will be conducted with patients having long-standing UC. Specifically, about 20 long-standing UC patients in stable clinical remission (SCCAI=0) and with fecal calprotectin (FC)>150 μg/g measured in stools are recruited and treated with 2 g/day of EPA-FFA for 90 days. Biopsies and biological samples are collected at the entry (TO) and at the end of the study (T3). Compliance is evaluated by EPA incorporation into red blood cell membranes. Protein levels of Jagged1, Hes1, STAT3, phospho-STAT3 and KLF-4 are determined by western blotting. IL-22, IL-10 and SOCS3 mRNA levels are analyzed by qRT-PCR. Goblet cells are stained by Alcian blue. Microbiota analyses are performed on fecal and biopsies DNA samples sequencing the V3-V4 region of the bacterial 16S rRNA gene. As a reference, a healthy adult population is used. Endoscopic and histologic disease activities are measured by Mayo and Geboes scores respectively.
Since EPA can be converted into the m-3 PUFA docosahexaenoic acid (DHA) in vivo through docosapentaenoic acid (DPA) (19), the overall ω-3 PUFAs content is also measured including EPA, DPA and DHA, in the patients.
Eligible patients are asymptomatic subjects aged 18-70 years with long-standing (≥8 years) UC, in stable clinical remission (simple clinical colitis activity index; SCCAI=0), and FC levels higher than 150 μg/g (53). Exclusion criteria are (1) recent use of steroids (<2 months) or other experimental drugs (<3 months); (2) concomitant use of anticoagulants; (3) probiotic use; (4) pregnancy or breast-feeding; (5) known or suspected hypersensitivity to eicosapentaenoic acid or ω-3 PUF As; and (6) severe co-morbidities. […] Adherence to EPA-FFA supplementation is evaluated both by capsule counting and assessing EPA incorporation into red blood cell (RBC) membranes. […]
Membrane fatty acids content is measured in RBCs. […] Extracted fatty acid methyl-esters are then analyzed by gas-chromatography mass-spectrometry (GC-MS). Fatty acid levels are expressed as relative percentages of total fatty acids.

[1] = short-term EPA-FFA supplementation, long-standing UC patients

CC/C=C\C/C=C\C/C=C\C/C=C\C/C=C\CCCC(=O)O [EPA-FFA, eicosapentaenoic acid]
EPA in RBC-purified membranes (UC patients, 2 g/day EPA-FFA for 90 days): significant increase | EPA and overall ω-3 PUFAs content (EPA, DPA and DHA) into RBCs [1]: increase | patients who incorporated EPA into RBCs [1]: 17/19

From patent US20250319052A1, “TREATMENT WITH HIGHLY PURIFIED EICOSAPENT AENOIC ACID AS FREE FATTY ACID IMPROVES INFLAMMATION, AFFECTS COLONIC DIFFERENTIATION MARKERS AND MICROBIOTA IN PATIENTS WITH ULCERATIVE COLITIS” (KD SWISS GMBH, priority 2019, published 2025)
